Tests used:
[1] = Deodorization test 1; settings: Ammonia; for Reduction: initial 100 ppm, after 30 minutes; for Reduction / Concentration after 30 minutes: 0.2 ml of 10% by weight aqueous solution; for Concentration after 30 minutes: initial concentration 100 ppm
[2] = Deodorization test 1; settings: Isovaleric acid; for Reduction: initial 10 ppm, after 30 minutes; for Reduction / Concentration after 30 minutes: 0.2 ml of 10% by weight aqueous solution; for Concentration after 30 minutes: initial concentration 10 ppm
[3] = Deodorization test 1; settings: Formaldehyde, 0.2 ml of 10% by weight aqueous solution; for Reduction: initial 10 ppm, after 30 minutes; for Concentration after 30 minutes: initial concentration 10 ppm
[4] = Deodorization test 1; settings: Styrene, 0.2 ml of 10% by weight aqueous solution; for Reduction: initial 100 ppm, after 30 minutes; for Concentration after 30 minutes: initial concentration 100 ppm
[5] = Deodorization test 1; settings: Acetic acid; for Reduction: initial 20 ppm, after 30 minutes; for Reduction / Concentration after 30 minutes: 0.2 ml of 10% by weight aqueous solution; for Concentration after 30 minutes: initial concentration 20 ppm
[6] = Deodorization test 1; settings: Methyl mercaptan; for Reduction: initial 10 ppm, after 30 minutes; for Reduction / Concentration after 30 minutes: 0.2 ml of 10% by weight aqueous solution; for Concentration after 30 minutes: initial concentration 10 ppm
[7] = Deodorization test 1; settings: Acetaldehyde; for Reduction: initial 10 ppm, after 30 minutes; for Reduction / Concentration after 30 minutes: 0.2 ml of 10% by weight aqueous solution; for Concentration after 30 minutes: initial concentration 10 ppm
[8] = Deodorization test 1; settings: Trimethylamine; for Reduction: initial 20 ppm, after 30 minutes; for Reduction / Concentration after 30 minutes: 0.2 ml of 10% by weight aqueous solution; for Concentration after 30 minutes: initial concentration 20 ppm
[9] = Deodorization test 1; settings: Toluene, 0.2 ml of 10% by weight aqueous solution; for Reduction: initial 100 ppm, after 30 minutes; for Concentration after 30 minutes: initial concentration 100 ppm

SMILES	Reduction [1] [%]	Concentration after 30 minutes [1] [ppm]	Reduction [2] [%]	Concentration after 30 minutes [2] [ppm]	Reduction [3] [%]	Concentration after 30 minutes [3] [ppm]	Reduction [4] [%]	Concentration after 30 minutes [4] [ppm]	Reduction [5] [%]	Concentration after 30 minutes [5] [ppm]	Reduction [6] [%]	Concentration after 30 minutes [6] [ppm]	Reduction [7] [%]	Concentration after 30 minutes [7] [ppm]	Reduction [8] [%]	Concentration after 30 minutes [8] [ppm]	Reduction [9] [%]	Concentration after 30 minutes [9] [ppm]	further results
NCC(=O)O [Glycine]	100	0	90	1	70	3	60	40	90	2	100	0	80	2	100	0	60	40	deodorizing action (in words) [1]: excellent deodorizing action; deodorizing action (in words) [2]: good results; deodorizing action (in words) [5]: good results; deodorizing action (in words) [6]: excellent deodorizing action; deodorizing action (in words) [7]: good results; deodorizing action (in words) [8]: excellent deodorizing action
NCCCC[C@H](N)C(=O)O [Lysine]	10	90	0	10	0	10	0	100	0	20	0	10	10	9	10	18	0	100	
N[C@@H](Cc1c[nH]c2ccccc12)C(=O)O [Tryptophan]	50	50	0	10	10	9	0	100	10	18	0	10	10	9	50	10	0	100	
N=C(N)NCCC[C@H](N)C(=O)O [Arginine]	10	90	0	10	0	10	0	100	15	17	0	10	10	9	5	19	0	100	
CSCC[C@H](N)C(=O)O [Methionine]	30	70	0	10	10	9	10	90	10	18	0	10	10	9	10	18	10	90	
N[C@@H](CS)C(=O)O [Cysteine]	100	0	20	8	20	8	10	90	20	16	0	10	0	10	100	0	10	90	deodorizing action (in words) [1]: excellent deodorizing action; deodorizing action (in words) [8]: excellent deodorizing action
O=C(O)[C@@H]1CCCN1 [Proline]	10	90	0	10	0	10	0	100	0	20	0	10	20	8	5	19	0	100	
CC(C)[C@H](N)C(=O)O [Valine]	10	90	0	10	0	10	0	100	0	20	0	10	0	10	5	19	0	100	
